Bounds are passed on as bounds.

A short description of series [1]: log D at pH 7.4 by an HPLC method. It is filed as physicochemical. The source says: Table 2 below presents data for log D (a parameter related to lipophilicity) at pH 7.4, as determined by an HPLC method, for representative compounds.
Another series deals with Bcl-2 protein (Homo sapiens (Human), UniProt P10415). As to the kind of experiment: Bcl-2 binding TR-FRET (Time-Resolved Fluorescence-Resonance-Energy-Transfer) assay. The note with it: inhibition constant for binding to Bcl-2 protein. An excerpt: The smaller the Ki value, the greater is the binding affinity.
In general terms: Time-resolved FRET reads energy transfer from a long-lived donor to a nearby acceptor.

Chain of Bcl-2 protein (P10415 whole entry): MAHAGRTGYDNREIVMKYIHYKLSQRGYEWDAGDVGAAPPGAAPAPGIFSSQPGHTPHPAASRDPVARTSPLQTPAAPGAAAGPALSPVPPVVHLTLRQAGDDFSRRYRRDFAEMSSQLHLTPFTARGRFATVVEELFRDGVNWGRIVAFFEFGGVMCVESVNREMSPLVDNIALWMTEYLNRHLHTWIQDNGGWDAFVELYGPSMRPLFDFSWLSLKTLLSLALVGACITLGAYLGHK

`CC1(C)CCC(CN2CCN(c3ccc(C(=O)NS(=O)(=O)c4ccc(OCC5COCCO5)c([N+](=O)[O-])c4)c(Oc4cnc5[nH]ccc5c4)c3)CC2)=C(c2ccc(Cl)cc2)C1` (stereo not drawn) [Compound 12, 4-(4-{[2-(4-chlorophenyl)-4,4-dimethylcyclohex-1-en-1-yl]methyl}piperazin-1-yl)-N-{[4-(1,4-dioxan-2-ylmethoxy)-3-nitrophenyl]sulfonyl}-2-(1H-pyrrolo[2,3-b]pyridin-5-yloxy)benzamide] returned a chromatographic logD in series [1] of 5.17. On Bcl-2 protein, this compound came in with a Ki of less than 0.01 nM.
For `CC1(C)CCC(CN2CCN(c3ccc(C(=O)NS(=O)(=O)c4ccc(OCC5CCOCC5)c([N+](=O)[O-])c4)c(Oc4cnc5[nH]ccc5c4)c3)CC2)=C(c2ccc(Cl)cc2)C1` [Compound 24, 4-(4-{[2-(4-chlorophenyl)-4,4-dimethylcyclohex-1-en-1-yl]methyl}piperazin-1-yl)-N-{[3-nitro-4-(tetrahydro-2H-pyran-4-ylmethoxy)phenyl]sulfonyl}-2-(1H-pyrrolo[2,3-b]pyridin-5-yloxy)benzamide], the chromatographic logD in series [1] came to 5.72. On Bcl-2 protein, this compound gave a Ki of less than 0.01 nM.
Taken in the same sequence, the figures for `CC1(C)CCC(CN2CCN(c3ccc(C(=O)NS(=O)(=O)c4ccc(OCC5(F)CCOCC5)c([N+](=O)[O-])c4)c(Oc4cnc5[nH]ccc5c4)c3)CC2)=C(c2ccc(Cl)cc2)C1` [Compound 37, 4-(4-{[2-(4-chlorophenyl)-4,4-dimethylcyclohex-1-en-1-yl]methyl}piperazin-1-yl)-N-({4-[(4-fluorotetrahydro-2H-pyran-4-yl)methoxy]-3-nitrophenyl}sulfonyl)-2-(1H-pyrrolo[2,3-b]pyridin-5-yloxy)benzamide] were 5.27 and less than 0.01 nM.
In turn, `CC1(C)CCC(CN2CCN(c3ccc(C(=O)NS(=O)(=O)c4ccc(OCC5COCCO5)c([N+](=O)[O-])c4)c(Oc4ccc5[nH]ccc5c4)c3)CC2)=C(c2ccc(Cl)cc2)C1` (stereo not drawn) [Compound 92, 4-(4-{[2-(4-chlorophenyl)-4,4-dimethylcyclohex-1-en-1-yl]methyl}piperazin-1-yl)-N-{[4-(1,4-dioxan-2-ylmethoxy)-3-nitrophenyl]sulfonyl}-2-(1H-indol-5-yloxy)benzamide] gave a chromatographic logD in series [1] of 5.6.
Still for that read-out and setting: under `CC1(C)CCC(CN2CCN(c3ccc(C(=O)NS(=O)(=O)c4cnc(OCC5(F)CCOCC5)c(C(F)(F)F)c4)c(Oc4cnc5[nH]ccc5c4)c3)CC2)=C(c2ccc(Cl)cc2)C1` [Compound 208, 4-(4-{[2-(4-chlorophenyl)-4,4-dimethylcyclohex-1-en-1-yl]methyl}piperazin-1-yl)-N-{[6-[(4-fluorotetrahydro-2H-pyran-4-yl)methoxy]-5-(trifluoromethyl)pyridin-3-yl]sulfonyl}-2-(1H-pyrrolo[2,3-b]pyridin-5-yloxy)benzamide] stands 5.57; under `CC1(C)CCC(CN2CCN(c3ccc(C(=O)NS(=O)(=O)c4ccc(NCC5CCC(F)(F)CC5)c([N+](=O)[O-])c4)c(Oc4cnc5[nH]ccc5c4)c3)CC2)=C(c2ccc(Cl)cc2)C1` [Compound 239, 4-(4-{[2-(4-chlorophenyl)-4,4-dimethylcyclohex-1-en-1-yl]methyl}piperazin-1-yl)-N-[(4-{[(4,4-difluorocyclohexyl)methyl]amino}-3-nitrophenyl)sulfonyl]-2-(1H-pyrrolo[2,3-b]pyridin-5-yloxy)benzamide], 5.92.
Turning to `CC1(C)CCC(CN2CCN(c3ccc(C(=O)NS(=O)(=O)c4cnc(NCC5(F)CCOCC5)c(Cl)c4)c(Oc4cnc5[nH]ccc5c4)c3)CC2)=C(c2ccc(Cl)cc2)C1` [Compound 242, N-[(5-chloro-6-{[(4-fluorotetrahydro-2H-pyran-4-yl)methyl]amino}pyridin-3-yl)sulfonyl]-4-(4-{[2-(4-chlorophenyl)-4,4-dimethylcyclohex-1-en-1-yl]methyl}piperazin-1-yl)-2-(1H-pyrrolo[2,3-b]pyridin-5-yloxy)benzamide], the chromatographic logD in series [1] stood at 5.51.
The same measure, in the same setting: then `CC1(C)CCC(CN2CCN(c3ccc(C(=O)NS(=O)(=O)c4ccc(NC[C@H]5CC[C@H](C#N)CC5)c([N+](=O)[O-])c4)c(Oc4cnc5[nH]ccc5c4)c3)CC2)=C(c2ccc(Cl)cc2)C1` [Compound 276, 4-(4-{[2-(4-chlorophenyl)-4,4-dimethylcyclohex-1-en-1-yl]methyl}piperazin-1-yl)-N-[(4-{[(trans-4-cyanocyclohexyl)methyl]amino}-3-nitrophenyl)sulfonyl]-2-(1H-pyrrolo[2,3-b]pyridin-5-yloxy)benzamide], with 5.59.
Take `CC1(C)CCC(CN2CCN(c3ccc(C(=O)NS(=O)(=O)c4cnc(OCC5(F)CCN(C6COC6)CC5)c(Cl)c4)c(Oc4cnc5[nH]ccc5c4)c3)CC2)=C(c2ccc(Cl)cc2)C1` [Compound 277, N-[(5-chloro-6-{[4-fluoro-1-(oxetan-3-yl)piperidin-4-yl]methoxy}pyridin-3-yl)sulfonyl]-4-(4-{[2-(4-chlorophenyl)-4,4-dimethylcyclohex-1-en-1-yl]methyl}piperazin-1-yl)-2-(1H-pyrrolo[2,3-b]pyridin-5-yloxy)benzamide]: the chromatographic logD in series [1] came to 5.26. On Bcl-2 protein, this compound registered a Ki of less than 0.01 nM.
Take `CC1(C)CCC(CN2CCN(c3ccc(C(=O)NS(=O)(=O)c4ccc(OCC5(F)CCOCC5)c(Cl)c4)c(Oc4cnc5[nH]ccc5c4)c3)CC2)=C(c2ccc(Cl)cc2)C1` [Compound 286, N-({3-chloro-4-[(4-fluorotetrahydro-2H-pyran-4-yl)methoxy]phenyl}sulfonyl)-4-(4-{[2-(4-chlorophenyl)-4,4-dimethylcyclohex-1-en-1-yl]methyl}piperazin-1-yl)-2-(1H-pyrrolo[2,3-b]pyridin-5-yloxy)benzamide]: in series [1], the chromatographic logD amounted to 5.66. In addition, the Ki at Bcl-2 protein was less than 0.01 nM.
As for `CC1(C)CCC(CN2CCN(c3ccc(C(=O)NS(=O)(=O)c4ccc(OC[C@H]5CC[C@H](N6CCOCC6)CC5)c(Cl)c4)c(Oc4cnc5[nH]ccc5c4)c3)CC2)=C(c2ccc(Cl)cc2)C1` [Compound 303, N-[(3-chloro-4-{[trans-4-(morpholin-4-yl)cyclohexyl]methoxy}phenyl)sulfonyl]-4-(4-{[2-(4-chlorophenyl)-4,4-dimethylcyclohex-1-en-1-yl]methyl}piperazin-1-yl)-2-(1H-pyrrolo[2,3-b]pyridin-5-yloxy)benzamide], in series [1], the chromatographic logD was 6.24.
Take `CC1(C)CCC(CN2CCN(c3ccc(C(=O)NS(=O)(=O)c4ccc(NCCCN(C5CC5)C5COC5)c([N+](=O)[O-])c4)c(Oc4cnc5[nH]ccc5c4)c3)CC2)=C(c2ccc(Cl)cc2)C1` [Compound 311, 4-(4-{[2-(4-chlorophenyl)-4,4-dimethylcyclohex-1-en-1-yl]methyl}piperazin-1-yl)-N-{[4-({3-[cyclopropyl(oxetan-3-yl)amino]propyl}amino)-3-nitrophenyl]sulfonyl}-2-(1H-pyrrolo[2,3-b]pyridin-5-yloxy)benzamide]: the chromatographic logD in series [1] was determined as 5.6. The compound further displayed a Ki on Bcl-2 protein of less than 0.01 nM.
Taken in the same sequence, the figures for `CN1CCC[C@H]1C(=O)N1CCC(COc2ccc(S(=O)(=O)NC(=O)c3ccc(N4CCN(CC5=C(c6ccc(Cl)cc6)CC(C)(C)CC5)CC4)cc3Oc3cnc4[nH]ccc4c3)cc2Cl)CC1` [Compound 312, N-[(3-chloro-4-{[1-(1-methyl-L-prolyl)piperidin-4-yl]methoxy}phenyl)sulfonyl]-4-(4-{[2-(4-chlorophenyl)-4,4-dimethylcyclohex-1-en-1-yl]methyl}piperazin-1-yl)-2-(1H-pyrrolo[2,3-b]pyridin-5-yloxy)benzamide] were 6.47 and less than 0.01 nM.
The corresponding values for `CC1(C)CCC(CN2CCN(c3ccc(C(=O)NS(=O)(=O)c4ccc(OCC5(F)CCN(C6COC6)CC5)c(Cl)c4)c(Oc4cnc5[nH]ccc5c4)c3)CC2)=C(c2ccc(Cl)cc2)C1` [Compound 322, N-[(3-chloro-4-{[4-fluoro-1-(oxetan-3-yl)piperidin-4-yl]methoxy}phenyl)sulfonyl]-4-(4-{[2-(4-chlorophenyl)-4,4-dimethylcyclohex-1-en-1-yl]methyl}piperazin-1-yl)-2-(1H-pyrrolo[2,3-b]pyridin-5-yloxy)benzamide] are 5.48 and less than 0.01 nM.
With `CC1(C)CCC(CN2CCN(c3ccc(C(=O)NS(=O)(=O)c4ccc(NC[C@H]5CC[C@@](C)(O)CC5)c([N+](=O)[O-])c4)c(Oc4cnc5[nH]ccc5c4)c3)CC2)=C(c2ccc(Cl)cc2)C1` [Compound 337, 4-(4-{[2-(4-chlorophenyl)-4,4-dimethylcyclohex-1-en-1-yl]methyl}piperazin-1-yl)-N-[(4-{[(trans-4-hydroxy-4-methylcyclohexyl)methyl]amino}-3-nitrophenyl)sulfonyl]-2-(1H-pyrrolo[2,3-b]pyridin-5-yloxy)benzamide], the “log D” value in series [1] is on record as 5.48.
With `CC1(C)CCC(CN2CCN(c3ccc(C(=O)NS(=O)(=O)c4ccc(NC[C@H]5CC[C@](C)(O)CC5)c([N+](=O)[O-])c4)c(Oc4cnc5[nH]ccc5c4)c3)CC2)=C(c2ccc(Cl)cc2)C1` [Compound 338, 4-(4-{[2-(4-chlorophenyl)-4,4-dimethylcyclohex-1-en-1-yl]methyl}piperazin-1-yl)-N-[(4-{[(cis-4-hydroxy-4-methylcyclohexyl)methyl]amino}-3-nitrophenyl)sulfonyl]-2-(1H-pyrrolo[2,3-b]pyridin-5-yloxy)benzamide], the “log D” value in series [1] was determined as 5.67.

The term chromatographic logD denotes lipophilicity estimated from chromatographic retention. Read a low chromatographic logD as lower lipophilicity. In general, Ki refers to the equilibrium dissociation constant of an inhibitor or competing ligand from its target. A low value points to tighter binding. Broadly, the log D is lipophilicity at a set pH, counting ionised and neutral species. Higher therefore signals a more lipophilic compound.
